Laboratory results reported in PMC9728974 (Science Advances, 2022).

Legend:
[1] = target: PmiR (PA0797), wild type (Pseudomonas aeruginosa PAO1); assay: SEC
PrpB = target: T1, PrpB (Pseudomonas aeruginosa, UniProt Q9I5E2); assay: HPLC-UV, A214; assay type: biochemical; conditions: 1.0 mM; 1 mM tris-HCl pH 7.5
T1 sequence (Q9I5E2 1-298): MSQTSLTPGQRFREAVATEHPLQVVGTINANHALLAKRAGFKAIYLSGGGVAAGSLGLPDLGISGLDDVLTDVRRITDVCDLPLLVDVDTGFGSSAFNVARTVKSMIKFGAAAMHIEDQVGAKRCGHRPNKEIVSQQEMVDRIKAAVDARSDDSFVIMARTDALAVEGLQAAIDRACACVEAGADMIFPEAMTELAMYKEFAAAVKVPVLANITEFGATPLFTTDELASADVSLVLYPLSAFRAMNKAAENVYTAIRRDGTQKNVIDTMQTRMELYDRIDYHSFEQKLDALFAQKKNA

PmiR = target: T2, PmiR (Pseudomonas aeruginosa, UniProt Q9I5E1); assay: ITC; assay type: binding
T2 sequence (Q9I5E1 1-240): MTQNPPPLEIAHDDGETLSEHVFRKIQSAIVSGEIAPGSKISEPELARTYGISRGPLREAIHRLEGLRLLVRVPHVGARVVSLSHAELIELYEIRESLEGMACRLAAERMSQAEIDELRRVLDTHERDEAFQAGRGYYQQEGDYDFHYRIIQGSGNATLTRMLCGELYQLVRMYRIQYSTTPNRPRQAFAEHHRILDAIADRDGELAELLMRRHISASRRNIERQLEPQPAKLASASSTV

[2] = target: T3, truncated PmiR protein (amino acids 15 to 232) (Pseudomonas aeruginosa, UniProt Q9I5E1); assay: ITC; assay type: binding
T3 sequence (Q9I5E1 15-232): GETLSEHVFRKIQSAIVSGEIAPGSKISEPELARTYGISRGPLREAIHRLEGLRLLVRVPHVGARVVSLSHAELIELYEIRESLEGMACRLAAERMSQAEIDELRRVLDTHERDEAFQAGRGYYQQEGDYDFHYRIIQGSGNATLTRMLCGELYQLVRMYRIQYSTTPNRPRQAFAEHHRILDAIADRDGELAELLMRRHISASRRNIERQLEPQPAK

## PmiR (PA0797), wild type (natural protein)
[1]
  stoichiometry N: 2

## CC(=O)C(=O)O [pyruvate]
PrpB
  HPLC-UV, A214: PrpB, methylisocitrate lyase, was the last but critical enzyme to convert MIC to succinate and pyruvate

## O=C(O)C[C@H](C(=O)O)[C@@H](O)C(=O)O [isocitrate]
PmiR
  Kd: 64.1 µM

## C[C@](O)(C(=O)O)[C@H](CC(=O)O)C(=O)O (racemic) [MIC]
[2]
  Kd: 62.9 µM
PmiR
  Kd: 21.8 µM
